Results taken from patent US9809623B2, “α4β7 peptide monomer and dimer antagonists” (Protagonist Therapeutics, Inc., priority 2014, dated 2017).
Read-outs that look alike come from different tables or passages of the source. Numbered stars: 1 amine (or outer) side, 2 acyl side, 3 side chain; on linkers, the order of the positions; unused ones are H or OH. Bridge positions count the residues as written; N and C are the ends. Square brackets hold non-standard residues; d marks the D form. Peptide text beside a SMILES is read from it. I, II: the chains in the order shown. ξ: configuration not given here. Phe(4-tBu) = CC(C)(C)c1ccc(C[C@H](N)C(=O)O)cc1; Diglycolyl = O=C(COCC(=O)[*:2])[*:1]; NMeR = CN[C@@H](CCCNC(=N)N)C(=O)O; β3hE = N[C@@H](CCC(=O)O)CC(=O)O; Thr(3ξ) = CC(O)[C@H](N)C(=O)O; Pen = CC(C)(S)[C@H](N)C(=O)O

Legend:
α4β1 = α4β1 (Homo sapiens, UniProt P05556+P13612); experiment: PBMC Memory T Cell Adhesion Assay, adhesion to VCAM-1; type: cell-based; details: memory T cells isolated from human PBMC donors; read-out: IC50 (nM), memory T cells, Integrin α4β1, Ligand VCAM-1
Experimental: Fresh CD4+/CD45RO+ memory T cells were isolated from human peripheral blood mononuclear cell (PBMC) donors by Aragen Bioscience Inc. (Morgan Hill, Calif.). The assay plate was prepared using IgG Fc capture antibody (donkey anti human) immobilized at 500 ng/well in 50 mM sodium bicarbonate buffer, pH 9.5, ON, 4C onto a Greiner Fluotrac plate (100 ul per well). The plate was rinsed two time with Blocking Buffer (25 mM Tris HCl, pH7.5, 150 mM NaCl, 1.5% BSA, 0.05% Tween), and blocked with Blocking Buffer for 2 hours at 37 C or 5 hours at RT using 200 ul per well. The Blocking Buffer was removed and either MAdCAM-1 or VCAM-1 at 400 ng/well in Blocking Buffer was added and the plate incubated overnight at 4C (100 ul per well). The plate was washed two times with Blocking Buffer, and rinsed once with 200 ul Binding Media (DMEM phenol red free, 10 mM HEPES, 1×Na pyruvate, 1× Glutamine, and supplemented with 1 mM MnCl2 prior to use). To prepare cells, approximately 25 million CD4+/CD45RO+ memory T cells were counted by trypan blue exclusion using a haemocytometer to determine viability and cell count. […] Fluorescence intensity was measured using a Molecular Devices Gemini EM Fluorescent Plate Reader (Ex 485/Em530, Bottom Read, Reading Sensitivity=20). IC50 curves are generated using Graph Pad Prism and the curves analyzed using analyzed using a non-linear regression (four parameters) algorithm. […]

[1] = tested on: C57BL/6 mice, DSS colitis; experiment: Additional 9 day DSS colitis studies; type: in vivo, mouse
Experimental: In this 9 day DSS colitis study, C57BL/6 mice were treated with 3% DSS from Day 1 to Day 6, and switched to normal water until Day 10. Daily dosing was PO BID plus drinking water for Peptide X, and 25 mg/kg IP every 3 days for the anti-α4β7 antibody DATK32. PP and blood were collected and levels of α4β7+ memory T cells analyzed by FACS.

[2] = Tissue exposure after oral administration, 8 days; type: in vivo; details: cynomolgus monkey; for level at time molar at 4 h: 4 hours after the last dose
Experimental: To determine tissue exposure following oral administration of Peptide X, Cynomolgus monkeys were dosed with Peptide X PO QD for 8 days at 12.5 mg/kg, 25 mg/kg or 75 mg/kg. The vehicle was 50 mM phosphate buffer, pH 7. Oral bioavailability in cyno (% F) was about 0.3%. Samples were collected 4 hours after the last dose.

α4β7 integrin = α4β7 integrin (Homo sapiens, UniProt P13612+P26010); experiment: Schild analysis, MAdCAM binding to immobilized α4β7 integrin by ELISA; details: global-fit Schild analysis
Chain of α4β7 integrin (P13612 34-977 limits assumed): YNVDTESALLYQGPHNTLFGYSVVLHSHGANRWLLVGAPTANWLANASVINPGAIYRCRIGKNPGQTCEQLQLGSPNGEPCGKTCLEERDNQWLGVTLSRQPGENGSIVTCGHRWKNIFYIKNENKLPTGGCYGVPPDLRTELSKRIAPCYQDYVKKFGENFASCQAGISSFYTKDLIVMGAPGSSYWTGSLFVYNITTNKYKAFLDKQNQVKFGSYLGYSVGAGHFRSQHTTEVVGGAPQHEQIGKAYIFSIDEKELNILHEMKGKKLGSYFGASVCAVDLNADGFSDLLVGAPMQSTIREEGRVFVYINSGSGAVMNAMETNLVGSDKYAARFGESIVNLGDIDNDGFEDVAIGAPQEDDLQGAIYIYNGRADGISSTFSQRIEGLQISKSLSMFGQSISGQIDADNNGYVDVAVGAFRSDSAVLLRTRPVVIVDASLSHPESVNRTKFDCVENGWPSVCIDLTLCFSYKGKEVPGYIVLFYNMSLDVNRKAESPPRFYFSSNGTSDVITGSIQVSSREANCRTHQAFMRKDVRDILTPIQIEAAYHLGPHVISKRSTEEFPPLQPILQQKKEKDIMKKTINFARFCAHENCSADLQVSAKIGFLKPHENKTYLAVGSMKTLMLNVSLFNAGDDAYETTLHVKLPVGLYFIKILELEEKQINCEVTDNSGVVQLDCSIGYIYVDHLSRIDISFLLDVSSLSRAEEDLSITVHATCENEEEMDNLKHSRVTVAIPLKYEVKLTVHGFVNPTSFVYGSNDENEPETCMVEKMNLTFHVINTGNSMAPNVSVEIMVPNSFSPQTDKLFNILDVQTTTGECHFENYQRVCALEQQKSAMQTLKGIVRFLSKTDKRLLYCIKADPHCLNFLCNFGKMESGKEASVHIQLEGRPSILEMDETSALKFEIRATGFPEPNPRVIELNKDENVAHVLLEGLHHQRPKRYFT
Chain of α4β7 integrin (P26010 20-723 limits assumed): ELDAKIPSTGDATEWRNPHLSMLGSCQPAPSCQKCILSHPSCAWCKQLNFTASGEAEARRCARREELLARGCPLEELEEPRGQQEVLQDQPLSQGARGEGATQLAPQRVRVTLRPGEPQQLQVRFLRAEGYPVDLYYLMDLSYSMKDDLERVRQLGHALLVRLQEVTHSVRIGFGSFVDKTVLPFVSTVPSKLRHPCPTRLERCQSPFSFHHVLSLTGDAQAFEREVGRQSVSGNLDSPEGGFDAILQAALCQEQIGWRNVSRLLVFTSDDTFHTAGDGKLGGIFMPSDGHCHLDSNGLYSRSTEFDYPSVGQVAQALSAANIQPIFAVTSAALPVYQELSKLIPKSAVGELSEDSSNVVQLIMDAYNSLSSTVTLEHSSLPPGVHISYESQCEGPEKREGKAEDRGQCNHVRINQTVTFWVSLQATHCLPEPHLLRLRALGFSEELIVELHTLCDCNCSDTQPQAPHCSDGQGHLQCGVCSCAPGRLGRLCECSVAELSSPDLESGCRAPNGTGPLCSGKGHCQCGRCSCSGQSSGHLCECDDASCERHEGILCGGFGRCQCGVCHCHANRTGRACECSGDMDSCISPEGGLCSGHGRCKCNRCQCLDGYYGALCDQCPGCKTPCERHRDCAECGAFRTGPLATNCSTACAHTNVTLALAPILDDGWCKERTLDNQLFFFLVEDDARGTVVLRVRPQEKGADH
Experimental: Schild analysis was used to determine if Peptide X blocked MAdCAM binding to α4β7 integrin by a simple competitive mechanism. […] Based on the dose-response shifts, global-fit Schild analysis was used to determine the Schild slope and equilibrium dissociation constant (KB). The slope was ˜1, which indicated the inhibition is orthosteric antagonism with respect to MAdCAM, and not allosteric antagonism. […] The estimated KB value was 1 nM, which was similar to other Peptide X potency values in different assays.

αEβ7 integrin = experiment: FACS binding in cynomolgus monkey blood (α4β7 / αEβ7 expressing cells); type: cell-based; details: cynomolgus monkey blood
Experimental: Blood from cynomolgus monkeys was also analyzed by FACS.
Binding to αEβ7 integrin in cyno blood was also tested. Cyno blood was incubated with 1 nM Peptide X-Alexa 647, and cells expressing α4β7 or αEβ7 were analyzed by FACS. […] Binding to α4β7 was specific, because it could be blocked in the presence of a large excess (1 uM) of unlabeled Peptide X. Therefore under these conditions, it was concluded that Peptide X binds α4β7, not αEβ7.

[3] = PK studies in normal or DSS treated mice and rats, oral dosing; type: in vivo
αLβ2 = αLβ2 (Homo sapiens, UniProt P05107+P20701); experiment: PBMC memory T cell adhesion to ICAM-1; type: cell-based; parameters: endogenous in cells; details: memory T cells isolated from human PBMC donors; read-out: IC50 (nM), memory T cells, Ligand ICAM-1
Chain of αLβ2 (P20701 26-1170): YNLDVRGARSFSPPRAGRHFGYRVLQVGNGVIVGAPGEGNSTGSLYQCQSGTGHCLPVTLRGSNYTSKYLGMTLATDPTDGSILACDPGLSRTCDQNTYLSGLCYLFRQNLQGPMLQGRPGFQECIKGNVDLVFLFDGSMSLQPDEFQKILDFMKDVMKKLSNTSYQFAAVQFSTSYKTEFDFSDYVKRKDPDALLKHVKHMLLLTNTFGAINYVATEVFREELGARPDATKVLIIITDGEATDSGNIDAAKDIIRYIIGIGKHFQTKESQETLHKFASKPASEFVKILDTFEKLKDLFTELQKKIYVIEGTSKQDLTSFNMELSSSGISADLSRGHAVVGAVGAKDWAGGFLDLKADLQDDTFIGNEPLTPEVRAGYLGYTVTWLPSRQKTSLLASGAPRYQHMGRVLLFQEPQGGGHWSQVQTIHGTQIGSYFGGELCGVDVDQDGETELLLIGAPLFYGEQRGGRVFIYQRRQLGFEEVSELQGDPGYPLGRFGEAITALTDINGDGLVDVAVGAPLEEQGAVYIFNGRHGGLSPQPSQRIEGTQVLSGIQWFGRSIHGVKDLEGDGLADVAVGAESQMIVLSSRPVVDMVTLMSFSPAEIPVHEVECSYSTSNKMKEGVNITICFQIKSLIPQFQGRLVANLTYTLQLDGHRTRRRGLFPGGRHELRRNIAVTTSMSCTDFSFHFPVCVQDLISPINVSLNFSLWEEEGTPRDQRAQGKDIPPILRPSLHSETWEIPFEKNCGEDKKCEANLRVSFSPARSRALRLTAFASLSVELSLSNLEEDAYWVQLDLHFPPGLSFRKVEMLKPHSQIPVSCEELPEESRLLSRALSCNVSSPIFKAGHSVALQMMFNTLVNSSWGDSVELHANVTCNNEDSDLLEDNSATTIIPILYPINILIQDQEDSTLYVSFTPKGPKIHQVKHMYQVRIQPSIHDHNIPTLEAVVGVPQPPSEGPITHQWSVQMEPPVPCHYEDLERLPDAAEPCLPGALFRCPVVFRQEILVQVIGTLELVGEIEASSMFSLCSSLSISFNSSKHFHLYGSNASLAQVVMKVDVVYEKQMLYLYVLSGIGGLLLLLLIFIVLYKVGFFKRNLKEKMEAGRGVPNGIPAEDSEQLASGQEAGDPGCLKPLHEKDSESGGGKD
Chain of αLβ2 (P05107 23-769): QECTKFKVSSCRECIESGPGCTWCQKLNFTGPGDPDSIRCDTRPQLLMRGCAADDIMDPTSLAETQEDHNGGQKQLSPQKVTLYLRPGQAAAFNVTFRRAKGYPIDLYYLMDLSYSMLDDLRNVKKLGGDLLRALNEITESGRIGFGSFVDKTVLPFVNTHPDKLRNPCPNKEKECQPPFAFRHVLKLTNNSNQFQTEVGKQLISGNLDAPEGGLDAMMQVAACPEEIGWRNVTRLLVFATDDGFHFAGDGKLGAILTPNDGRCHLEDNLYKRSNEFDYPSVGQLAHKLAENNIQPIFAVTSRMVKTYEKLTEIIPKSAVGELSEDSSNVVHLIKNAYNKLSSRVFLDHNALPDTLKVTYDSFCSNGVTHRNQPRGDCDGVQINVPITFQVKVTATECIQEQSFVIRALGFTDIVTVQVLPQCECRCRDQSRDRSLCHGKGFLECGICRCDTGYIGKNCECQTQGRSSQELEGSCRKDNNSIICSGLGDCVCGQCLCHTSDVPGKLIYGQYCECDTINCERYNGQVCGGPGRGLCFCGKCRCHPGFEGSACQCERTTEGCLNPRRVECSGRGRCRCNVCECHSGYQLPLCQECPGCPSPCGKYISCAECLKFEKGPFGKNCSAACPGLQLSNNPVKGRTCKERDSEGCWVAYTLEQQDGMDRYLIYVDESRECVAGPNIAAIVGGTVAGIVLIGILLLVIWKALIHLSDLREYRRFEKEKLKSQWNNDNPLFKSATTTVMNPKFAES

FIG. 5 = experiment: FIG. 5
Description: Table printed on a drawing sheet, FIG. 5
Footnotes: SIF- simulated intestinal fluid (porcine) / RIW- rat intestinal wash / HIF- human intestinal fluid / CW- colonic wash (rat) / IMH- intestinal mucosal homogenate (rat) / CMG- colonic mucosal homogenate (rat) / SGF- simulated gastric fluid (porcine) / Hu S9- human intestinal S9 fraction / RL S9- rat liver S9
First reader's note: The first column is printed empty in all rows, so no substance name appears on the sheet; the column head reads CMH while the legend prints CMG.

CC(=O)N[C@@H]1C(=O)N(C)[C@@H](CCCNC(=N)N)C(=O)N[C@@H](CO)C(=O)N[C@@H](CC(=O)O)C(=O)N[C@@H](C(C)O)C(=O)N[C@@H](CC(C)C)C(=O)N[C@H](C(=O)N[C@@H](Cc2ccc(C(C)(C)C)cc2)C(=O)N[C@@H](CCC(=O)O)CC(=O)N[C@H](CCCCNC(=O)COCC(=O)NCCCC[C@@H](NC(=O)C[C@H](CCC(=O)O)NC(=O)[C@H](Cc2ccc(C(C)(C)C)cc2)NC(=O)[C@H]2NC(=O)[C@H](CC(C)C)NC(=O)[C@H](C(C)O)NC(=O)[C@H](CC(=O)O)NC(=O)[C@H](CO)NC(=O)[C@H](CCCNC(=N)N)N(C)C(=O)[C@@H](NC(C)=O)C(C)(C)SSC2(C)C)C(N)=O)C(N)=O)C(C)(C)SSC1(C)C (stereo partly drawn) [Peptide X, [Ac-Pen-(N-Me-Arg)-Ser-Asp-Thr-Leu-Pen-(Phe(4-tBu))-(β-homoGlu)-(D-Lys)]2-DIG] (I: Ac-[Pen][NMeR]SD[Thr(3ξ)]L[Pen][Phe(4-tBu)][β3hE][dK]-NH2 / II: Ac-[Pen][NMeR]SD[Thr(3ξ)]L[Pen][Phe(4-tBu)][β3hE][dK]-NH2; disulfide I:1-I:7, II:1-II:7; linker I:10-II:10 via Diglycolyl)
IC50 (α4β1): > 100000 nM
body weight loss and mucosal injury as assessed by endoscopy ([1]; DSS mice orally dosed daily for 9 days): dose-dependent reduction in body weight loss and mucosal injury
CD4+CD44highCD45RBlowβ7+ T cells in MLN, Peyer's Patches, spleen and blood ([1]; DSS mice orally dosed daily for 9 days, FACS): dose dependent reduction
α4β7+ T cells in gut lymphoid tissues and blood ([1]; PO BID plus drinking water): reduced α4β7+ T cells in gut lymphoid tissues and redirected them to blood
level at time molar at 4 h ([2]; colon, 12.5 mg/kg PO QD 8 days, read-out: Peptide X exposure, Colon): 4160 nM
level at time molar at 4 h ([2]; colon, 25 mg/kg PO QD 8 days, read-out: Peptide X exposure, Colon): 1550 nM
level at time molar at 4 h ([2]; colon, 75 mg/kg PO QD 8 days, read-out: Peptide X exposure, Colon): 15500 nM
bioavailability ([2]; in vivo, oral, read-out: Oral bioavailability in cyno (% F)): ~0.3%
level at time molar at 4 h ([2]; mesenteric lymph node, 12.5 mg/kg PO QD 8 days, read-out: Peptide X exposure, Mesenteric Lymph Node): 1500 nM
level at time molar at 4 h ([2]; mesenteric lymph node, 25 mg/kg PO QD 8 days, read-out: Peptide X exposure, Mesenteric Lymph Node): 138 nM
level at time molar at 4 h ([2]; mesenteric lymph node, 75 mg/kg PO QD 8 days, read-out: Peptide X exposure, Mesenteric Lymph Node): 1980 nM
level at time molar at 4 h ([2]; plasma, 12.5 mg/kg PO QD 8 days, read-out: Peptide X exposure, Plasma): 2 nM
level at time molar at 4 h ([2]; plasma, 25 mg/kg PO QD 8 days, read-out: Peptide X exposure, Plasma): 5 nM
level at time molar at 4 h ([2]; plasma, 75 mg/kg PO QD 8 days, read-out: Peptide X exposure, Plasma): 21 nM
level at time molar at 4 h ([2]; small intestine, 12.5 mg/kg PO QD 8 days, read-out: Peptide X exposure, Small Intestine): 661 nM
level at time molar at 4 h ([2]; small intestine, 25 mg/kg PO QD 8 days, read-out: Peptide X exposure, Small Intestine): 293 nM
level at time molar at 4 h ([2]; small intestine, 75 mg/kg PO QD 8 days, read-out: Peptide X exposure, Small Intestine): 7840 nM
Schild slope (α4β7 integrin): ~1
Kb (α4β7 integrin; estimated, read-out: equilibrium dissociation constant (KB)): 0.001 µM
binding site on α4β7 relative to vedolizumab (αEβ7 integrin): binds to a site on α4β7 that is distinct from the binding site for vedolizumab
levels in the blood and urine after oral dosing [3]: no significant measurable levels in the blood and urine
IC50 (αLβ2): > 100000 nM
Intestinal half-life | CMH (FIG. 5): >6 h
Intestinal half-life | CW (FIG. 5): >6 h
Intestinal half-life | HIF (FIG. 5): >24 h
Intestinal half-life | IMH (FIG. 5): >6 h
Intestinal half-life | SIF (FIG. 5): 11 h
Metabolism | Hu S9 (FIG. 5): >6 h
Metabolism | RL S9 (FIG. 5): >6 h
